Columns and labels:
[1] = system: cucumber chitinase protein; assay: Cucumber chitinase ELISA in transgenic plants carrying cucumber chitinase genomic constructs after leaf treatment; type: in vivo, tobacco; set-up: key: —: Indicates that sample has no detectable level of chitinase protein
Procedure: Once the transgenic plants are transferred to soil, they are grown 4-5 weeks before treatment. The following solutions are applied to the leaves with sterile paintbrushes:
3. Methyl benzo-1,2,3-thiadiazole-7-carboxylate. The solution is made by resuspending a wettable powder containing a formulation of the chemical with 25% active ingredient in sterile water at a concentration of 1 mg/ml.
4. Methyl 2,6-dichloroisonicotinate, prepared as above. Alternatively, 30 ul of 10 mM sodium phosphate buffer, pH 7.0, or 30 ul of the same buffer containing tobacco mosaic virus (50-100 pfu/30 ul) is applied to the leaves which have been sprinkled with carborundum. The buffers are distributed over the whole treated leaf by gentle rubbing.
The plants are allowed to continue to grow for seven days. The treated leaves are then harvested, frozen in liquid nitrogen and stored at −80° C. until they are assayed.
Frozen leaf tissue is ground in a mortar with a pestle in the presence of liquid nitrogen to produce a fine powder. 0.33 g of each tissue sample is added to 1 ml extraction buffer (50 mM Tris-HCl, pH 8.5, 0.2M 2-mercaptoethanol, 2 mM phenyl methyl sulfonyl fluoride, 2 mM benzamidine, 10 mM epsilon-aminocaproic acid, 1 mM leueptine) and the sample homogenized for one minute with an Ultra Turrax Mixer (shaft #S25N-8G, Tekmar Co. Cincinnati, Ohio). The samples are then centrifuged at 48,000×g for fifteen minutes at 4° C. and the supernatant removed from the pelleted material. The extracts are diluted at least 1:50 in ELISA diluent (101 mM sodium phosphate, pH 7.4, 140 mM sodium chloride, 0.05% Tween 20, 0.02% sodium azide, 1% BSA).
A microtiter plate is coated with monoclonal antibody specific to the cucumber chitinase protein at 2 ug/ml in borate-buffered saline (100 mM boric acid, 25mM sodium borate, 75 mM sodium chloride; pH 8.5) using 50 ul per well. The plate is incubated overnight at 4° C. The plate is washed with ELISA wash buffer (10 mM Tris-HCl, pH 8.0, 0.05% Tween 20, 3 mM sodium azide) and BSA blocking solution (10 mM sodium phosphate, pH 7.4, 140 mM sodium chloride, 0.02% sodium azide, 1% BSA) is added to completely cover each well. Incubation is for at least 30 minutes at room temperature.
The microtiter plate is washed with ELISA wash buffer and 50 ul of extract is added to the appropriate well. 50 ul of each of 10 chitinase protein standards (ranging from 0 ng/ml to 31.64 ng/ml) was also added to the appropriate well and the plate is incubated for two hours at 4° C. The plate is washed with ELISA wash buffer and 50 ul of rabbit polyclonal antibody to the cucumber chitainase protein (diluted 1:15,000 in ELISA diluent) is added to the well and incubated for one hour at 37° C. After washing with ELISA wash buffer, 50 ul of goat anti-rabbit conjugated to alkaline phosphatase (1:500 in ELISA diluent) is added to each well and incubated at 37° C. for one hour. The plate is then washed and 50 ul alkaline phosphatase substrate solution (0.6 mg/ml p-nitrophenyl phosphate in 0.5 mM magnesium chloride and 10% diethanolamine) is added to each well. After a 30 minute incubation at room temperature, 50 ul of 3N sodium hydroxide is added to each well to stop the reaction.
The plate is read at 405 nm and 492 nm on an HP Genenchem ELISA plate reader. The output values are expressed as A(405 nm)-A(492 nm)−0.092 to allow for correction of p-nitrophenyl phosphate as substrate. The chitinase standards for each plate are graphed logarithmically. The amount of chitinase protein in each sample is determined from the standard curve. If the amount of chitinase in any sample is close to the upper limit of the curve, the sample is assayed again at a greater dilution. Final results are expressed in the table below in ug chitinase per gram tissue.

[2] = system: chemically regulatable chimeric genes coding for GUS, AHAS or BT; assay: Primer extension assay for mRNA of chemically regulatable chimeric genes; type: in vivo; details: callus or regenerated plant material from transgenic plants; level proportional to amount of regulator applied
Procedure: 50 g of total RNA is lyophilized in a 500 l Eppendorf tube. The RNA is resuspended in 30 l of radiolabeled probe solution and heated to 70′ C. for 10 minutes. The tube is slowly cooled to 37° C. and allowed to incubate overnight. Without removing the tube from the 37° C. water bath, 2 l of 10×reverse-transcriptase buffer (500 mM Tris-HCl, pH 7.5, 400 mM KCl, 30 mM MgCl2), 1 l 5 mg/ml bovine serum albumin, 5 l 100 mM dithiothreitol, 5 l 10×dNTPs (10 mM of each dNTP in H2O), 3 l H 20, 2 l RNasin (80 units), and 2 l reverse transcriptase (400 units) are added and the reaction is incubated at 37° C. for 30 minutes. To stop the reaction, 5 l of 3 M sodium acetate, pH 5, and 150 l absolute ethanol are added. The tube is left at −20° C. for 30 minutes, the precipitate is collected by centrifugation, washed with 80% ethanol and allowed to air-dry. The precipitate is resuspended in 10-20 l of loading dye (90% formamide, 0.05% bromophenol blue, 0.05% xylene cyanol, 1 mM EDTA) and the extension products are separated on a 6% sequencing gel (Maniatis, T. et al., supra). Extension products are visualized by autoradiography.
Plant materials induced and harvested as in Examples 140 to 142 are assayed for the induction of mRNA species by the isolation of RNA and the primer extension assay as described in Example 6.
The level of mRNA is proportional to the amount of regulator applied.

COC(=O)c1cccc2nnsc12 [Methyl benzo-1,2,3-thiadiazole-7-carboxylate]
ELISA ASSAY RESULTS (ug chitinase/g tissue) ([1]; line Bam-1 (2001/BamChit), leaves harvested after seven days, water 0.066, buffer —): 3.000 ug chitinase/g tissue | ELISA ASSAY RESULTS (ug chitinase/g tissue) ([1]; line Bam-3 (2001/BamChit), seven days, water —, buffer —): 0.504 ug chitinase/g tissue | ELISA ASSAY RESULTS (ug chitinase/g tissue) ([1]; line Bam-4 (2001/BamChit), seven days, water —, buffer —): — | ELISA ASSAY RESULTS (ug chitinase/g tissue) ([1]; line Bam-8 (2001/BamChit), seven days, water —, buffer —): — | ELISA ASSAY RESULTS (ug chitinase/g tissue) ([1]; line Bam-9 (2001/BamChit), seven days, water —, buffer —): 33.885 ug chitinase/g tissue | ELISA ASSAY RESULTS (ug chitinase/g tissue) ([1]; line Bam-10 (2001/BamChit), seven days, water 0.059, buffer 0.084): 25.182 ug chitinase/g tissue | ELISA ASSAY RESULTS (ug chitinase/g tissue) ([1]; line Bam-12 (2001/BamChit), seven days, water —, buffer —): 1.349 ug chitinase/g tissue | ELISA ASSAY RESULTS (ug chitinase/g tissue) ([1]; line Bam-14 (2001/BamChit), seven days, water —, buffer —): 0.541 ug chitinase/g tissue | ELISA ASSAY RESULTS (ug chitinase/g tissue) ([1]; line Bam-15 (2001/BamChit), seven days, water —, buffer —): 3.366 ug chitinase/g tissue | ELISA ASSAY RESULTS (ug chitinase/g tissue) ([1]; line Bam-16 (2001/BamChit), seven days, water —, buffer —): 18.849 ug chitinase/g tissue | ELISA ASSAY RESULTS (ug chitinase/g tissue) ([1]; line Bam-17 (2001/BamChit), seven days, water —, buffer —): 2.997 ug chitinase/g tissue | ELISA ASSAY RESULTS (ug chitinase/g tissue) ([1]; line Bam-19 (2001/BamChit), seven days, water —, buffer —): 0.998 ug chitinase/g tissue | ELISA ASSAY RESULTS (ug chitinase/g tissue) ([1]; line Bam-21 (2001/BamChit), seven days, water —, buffer —): — | ELISA ASSAY RESULTS (ug chitinase/g tissue) ([1]; line Bam-23 (2001/BamChit), seven days, water —, buffer —): 0.782 ug chitinase/g tissue | ELISA ASSAY RESULTS (ug chitinase/g tissue) ([1]; line Bam-24 (2001/BamChit), seven days, water —, buffer —): 0.88 ug chitinase/g tissue | ELISA ASSAY RESULTS (ug chitinase/g tissue) ([1]; line Bam-25 (2001/BamChit), seven days, water —, buffer —): 18.145 ug chitinase/g tissue | ELISA ASSAY RESULTS (ug chitinase/g tissue) ([1]; line Bam-26 (2001/BamChit), seven days, water —, buffer —): 0.676 ug chitinase/g tissue | ELISA ASSAY RESULTS (ug chitinase/g tissue) ([1]; line Nco-2 (2001/NcoChit), seven days, water —, buffer —): — | ELISA ASSAY RESULTS (ug chitinase/g tissue) ([1]; line Nco-3 (2001/NcoChit), seven days, water —, buffer —): — | ELISA ASSAY RESULTS (ug chitinase/g tissue) ([1]; line Nco-5 (2001/NcoChit), seven days, water —, buffer —): — | ELISA ASSAY RESULTS (ug chitinase/g tissue) ([1]; line Nco-8 (2001/NcoChit), seven days, water —, buffer —): — | ELISA ASSAY RESULTS (ug chitinase/g tissue) ([1]; line Nco-9 (2001/NcoChit), seven days, water —, buffer —): — | ELISA ASSAY RESULTS (ug chitinase/g tissue) ([1]; line Nco-10 (2001/NcoChit), seven days, water —, buffer —): 0.047 ug chitinase/g tissue | ELISA ASSAY RESULTS (ug chitinase/g tissue) ([1]; line Nco-11 (2001/NcoChit), seven days, water —, buffer —): — | ELISA ASSAY RESULTS (ug chitinase/g tissue) ([1]; line Nco-15 (2001/NcoChit), seven days, water —, buffer —): — | ELISA ASSAY RESULTS (ug chitinase/g tissue) ([1]; line Nco-16 (2001/NcoChit), seven days, water 0.555, buffer 0.566): 0.784 ug chitinase/g tissue | ELISA ASSAY RESULTS (ug chitinase/g tissue) ([1]; line Nco-17 (2001/NcoChit), seven days, water —, buffer —): — | ELISA ASSAY RESULTS (ug chitinase/g tissue) ([1]; line Sal-2 (2001/SalChit), seven days, water —, buffer —): 0.117 ug chitinase/g tissue | ELISA ASSAY RESULTS (ug chitinase/g tissue) ([1]; line Sal-3 (2001/SalChit), seven days, water —, buffer —): 0.060 ug chitinase/g tissue | ELISA ASSAY RESULTS (ug chitinase/g tissue) ([1]; line Sal-4 (2001/SalChit), seven days, water —, buffer —): 0.537 ug chitinase/g tissue | ELISA ASSAY RESULTS (ug chitinase/g tissue) ([1]; line Sal-5 (2001/SalChit), seven days, water —, buffer —): 0.229 ug chitinase/g tissue | ELISA ASSAY RESULTS (ug chitinase/g tissue) ([1]; line Sal-7 (2001/SalChit), seven days, water —, buffer —): 0.377 ug chitinase/g tissue | ELISA ASSAY RESULTS (ug chitinase/g tissue) ([1]; line Sal-8 (2001/SalChit), seven days, water —, buffer —): — | ELISA ASSAY RESULTS (ug chitinase/g tissue) ([1]; line Sal-9 (2001/SalChit), seven days, water —, buffer —): 0.553 ug chitinase/g tissue | ELISA ASSAY RESULTS (ug chitinase/g tissue) ([1]; line Sal-11 (2001/SalChit), seven days, water —, buffer —): — | ELISA ASSAY RESULTS (ug chitinase/g tissue) ([1]; line Sal-12 (2001/SalChit), seven days, water —, buffer —): — | ELISA ASSAY RESULTS (ug chitinase/g tissue) ([1]; line Sal-13 (2001/SalChit), seven days, water —, buffer —): — | ELISA ASSAY RESULTS (ug chitinase/g tissue) ([1]; line Sal-14 (2001/SalChit), seven days, water —, buffer —): — | ELISA ASSAY RESULTS (ug chitinase/g tissue) ([1]; line Sal-15 (2001/SalChit), seven days, water —, buffer —): 0.038 ug chitinase/g tissue | level of mRNA of the chimeric gene (GUS, AHAS or BT primer), primer extension assay [2]: elevated levels of mRNA

Source: US6632981B1, “DNA sequences encoding polypeptides having beta-1,3-glucanase activity” (Novartis Finance Corporation, priority 1988, dated 2003)
